The record followed here is the supplement of paper PMC11061612.

SMILES strings stand for the structures.

The subject of one assay is SK-N-FI (Neuroblastoma). The assay is described as follows: Bliss excess, mean over the matrix (fraction); higher = more synergy. Put shortly:
(§1)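 After 24 hours at 37°C and 5% CO2 in 1536-well plates, cells in DMEM/F12 or RPMI plus 10% FBS received two-drug dose matrices for 72 hours. Viability came from CellTiter-Glo 2.0 luminescence and was scaled as inhibition, anchored at 0 by vehicle wells and at 1 by blank wells. Combination Emax is taken as the second-highest inhibition in the matrix, and Bliss excess as the observed combination effect less EA + EB − EA·EB, with EA and EB the single-agent effects.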

Assay [1] deals with U-266 (Plasma Cell Myeloma). The description is as above. Put shortly:
as §1

As to `CC1(C)CCC(CN2CCN(c3ccc(C(=O)NS(=O)(=O)c4ccc(NCC5CCOCC5)c([N+](=O)[O-])c4)c(Oc4cnc5[nH]ccc5c4)c3)CC2)=C(c2ccc(Cl)cc2)C1` [Venetoclax] + C=CCn1c(=O)c2cnc(Nc3ccc(N4CCN(C)CC4)cc3)nc2n1-c1cccc(C(C)(C)O)n1 [AZD1775] (first compound max 1 µM, partner max 1 µM), the figures for the Bliss excess (in the assay on SK-N-FI (Neuroblastoma); in assay [1]) were -0.0076 and 0.104, respectively.
In the same order, the values of `Cc1c2c(nn1C)CSCc1cc(n(C)n1)CSc1cc(c3ccccc3c1)OCCCc1c(C(=O)O)n(C)c3c-2c(Cl)ccc13` [AZD5991] + C[C@@H](Nc1cc(F)cc(F)c1)c1cc(C(=O)N(C)C)cc2c(=O)cc(N3CCOCC3)oc12 [AZD8186] (first compound max 1 µM, 7x7, partner max 3 µM) are -0.024 and -0.0496.
For `CC1(C)CCC(CN2CCN(c3ccc(C(=O)NS(=O)(=O)c4ccc(NCC5CCOCC5)c([N+](=O)[O-])c4)c(Oc4cnc5[nH]ccc5c4)c3)CC2)=C(c2ccc(Cl)cc2)C1` [Venetoclax] + CCN(CCO)CCCOc1ccc2c(Nc3cc(CC(=O)Nc4cccc(F)c4)[nH]n3)ncnc2c1 [AZD2811] (first compound max 1 µM, 7x7, partner max 1 µM) the same measures were -0.0456 and -0.0216.
On to `CN(CCO)CC[C@H](CSc1ccccc1)Nc1ccc(S(=O)(=O)NC(=O)c2ccc(N3CCC([C@@H](O)c4ccccc4-c4ccc(Cl)cc4)CC3)cc2)cc1S(=O)(=O)C(F)(F)F` [AZD4320] + Cn1cnc2c(F)c(Nc3ccc(Br)cc3Cl)c(C(=O)NOCCO)cc21 [Selumetinib] (first compound max 1 µM, 7x7, partner max 3 µM), for which the Bliss excess in the assay with SK-N-FI (Neuroblastoma) turned out to be 0.0296; in assay [1], 0.13.
For `Cc1c2c(nn1C)CSCc1cc(n(C)n1)CSc1cc(c3ccccc3c1)OCCCc1c(C(=O)O)n(C)c3c-2c(Cl)ccc13` [AZD5991] + C1CN(CCC1(C(=O)N[C@@H](CCO)C2=CC=C(C=C2)Cl)N)C3=NC=NC4=C3C=CN4 [Capivasertib] (first compound max 1 µM, 7x7, partner max 3 µM), the Bliss excess in the assay with SK-N-FI (Neuroblastoma) was 0.0211; in assay [1], 0.0662.
For `Cc1c2c(nn1C)CSCc1cc(n(C)n1)CSc1cc(c3ccccc3c1)OCCCc1c(C(=O)O)n(C)c3c-2c(Cl)ccc13` [AZD5991] + Cn1cnc2c(F)c(Nc3ccc(Br)cc3Cl)c(C(=O)NOCCO)cc21 [Selumetinib] (first compound max 1 µM, 7x7, partner max 3 µM) the same measures were -0.0042 and 0.0068.
For `Cc1c2c(nn1C)CSCc1cc(n(C)n1)CSc1cc(c3ccccc3c1)OCCCc1c(C(=O)O)n(C)c3c-2c(Cl)ccc13` [AZD5991] + CC1(C)CCC(CN2CCN(c3ccc(C(=O)NS(=O)(=O)c4ccc(NCC5CCOCC5)c([N+](=O)[O-])c4)c(Oc4cnc5[nH]ccc5c4)c3)CC2)=C(c2ccc(Cl)cc2)C1 [Venetoclax] (first compound max 1 µM, 7x7, partner max 1 µM) the same measures were 0.034 and 0.0759.
For `Cc1c2c(nn1C)CSCc1cc(n(C)n1)CSc1cc(c3ccccc3c1)OCCCc1c(C(=O)O)n(C)c3c-2c(Cl)ccc13` [AZD5991] + C=CCn1c(=O)c2cnc(Nc3ccc(N4CCN(C)CC4)cc3)nc2n1-c1cccc(C(C)(C)O)n1 [AZD1775] (first compound max 1 µM, partner max 1 µM) the same measures were -0.0478 and -0.0008.
For `CC1(C)CCC(CN2CCN(c3ccc(C(=O)NS(=O)(=O)c4ccc(NCC5CCOCC5)c([N+](=O)[O-])c4)c(Oc4cnc5[nH]ccc5c4)c3)CC2)=C(c2ccc(Cl)cc2)C1` [Venetoclax] + COc1cc(Nc2ncc3c(n2)-c2ccc(Cl)cc2C(c2c(F)cccc2OC)=NC3)ccc1C(=O)O [Alisertib] (first compound max 1 µM, 7x7, partner max 10 µM), the Bliss excess in the assay on SK-N-FI (Neuroblastoma) turned out to be 0.0916; in assay [1], 0.131.
`CC1(C)CCC(CN2CCN(c3ccc(C(=O)NS(=O)(=O)c4ccc(NCC5CCOCC5)c([N+](=O)[O-])c4)c(Oc4cnc5[nH]ccc5c4)c3)CC2)=C(c2ccc(Cl)cc2)C1` [Venetoclax] + CN(C)CCCOc1ccc(-c2ccc3ncc4c(c3c2)n(C2CCOCC2)c(=O)n4C)cn1 [AZD0156] (first compound max 1 µM, 7x7, partner max 1 µM): the Bliss excess in the assay on SK-N-FI (Neuroblastoma) was found to be 0; in assay [1], 0.0264.
For `CN(CCO)CC[C@H](CSc1ccccc1)Nc1ccc(S(=O)(=O)NC(=O)c2ccc(N3CCC([C@@H](O)c4ccccc4-c4ccc(Cl)cc4)CC3)cc2)cc1S(=O)(=O)C(F)(F)F` [AZD4320] + C=CCn1c(=O)c2cnc(Nc3ccc(N4CCN(C)CC4)cc3)nc2n1-c1cccc(C(C)(C)O)n1 [AZD1775] (first compound max 1 µM, partner max 1 µM) the same measures were -0.0331 and 0.1.
In the same order, the values of `CC1(C)CCC(CN2CCN(c3ccc(C(=O)NS(=O)(=O)c4ccc(NCC5CCOCC5)c([N+](=O)[O-])c4)c(Oc4cnc5[nH]ccc5c4)c3)CC2)=C(c2ccc(Cl)cc2)C1` [Venetoclax] + C[C@@H](Nc1cc(F)cc(F)c1)c1cc(C(=O)N(C)C)cc2c(=O)cc(N3CCOCC3)oc12 [AZD8186] (first compound max 1 µM, 7x7, partner max 3 µM) are -0.0178 and 0.0357.
For `Cc1c2c(nn1C)CSCc1cc(n(C)n1)CSc1cc(c3ccccc3c1)OCCCc1c(C(=O)O)n(C)c3c-2c(Cl)ccc13` [AZD5991] + Cc1cc2ncnn2cc1Nc1ncc2c(n1)n(C1CCOCC1)c(=O)n2C [AZD7648] (first compound max 1 µM, 7x7, partner max 10 µM) the same measures were -0.0289 and 0.0078.
Take `CN(CCO)CC[C@H](CSc1ccccc1)Nc1ccc(S(=O)(=O)NC(=O)c2ccc(N3CCC([C@@H](O)c4ccccc4-c4ccc(Cl)cc4)CC3)cc2)cc1S(=O)(=O)C(F)(F)F` [AZD4320] + CN(C)CCCOc1ccc(-c2ccc3ncc4c(c3c2)n(C2CCOCC2)c(=O)n4C)cn1 [AZD0156] (first compound max 1 µM, 7x7, partner max 1 µM): the Bliss excess is -0.0252 in the assay on SK-N-FI (Neuroblastoma) and 0.0462 in assay [1].
For `Cc1c2c(nn1C)CSCc1cc(n(C)n1)CSc1cc(c3ccccc3c1)OCCCc1c(C(=O)O)n(C)c3c-2c(Cl)ccc13` [AZD5991] + C[C@@H]1COCCN1C2=NC(=NC(=C2)C3(CC3)[S@](=N)(=O)C)C4=C5C=CNC5=NC=C4 [AZD6738] (first compound max 1 µM, 7x7, partner max 10 µM) the same measures were -0.0554 and 0.0624.
In the same order, the values of `CC(=O)Nc1cccc(-n2c(=O)n(C3CC3)c(=O)c3c(Nc4ccc(I)cc4F)n(C)c(=O)c(C)c32)c1` [Trametinib] + Cc1nc(-c2cn3c(n2)-c2ccc(-c4cnn(C(C)(C)C(N)=O)c4)cc2OCC3)n(C(C)C)n1 [Taselisib] (first compound max 1 µM, 7x7, partner max 10 µM) are 0.033 and 0.181.
For `CN(CCO)CC[C@H](CSc1ccccc1)Nc1ccc(S(=O)(=O)NC(=O)c2ccc(N3CCC([C@@H](O)c4ccccc4-c4ccc(Cl)cc4)CC3)cc2)cc1S(=O)(=O)C(F)(F)F` [AZD4320] + C1CN(CCC1(C(=O)N[C@@H](CCO)C2=CC=C(C=C2)Cl)N)C3=NC=NC4=C3C=CN4 [Capivasertib] (first compound max 1 µM, 7x7, partner max 3 µM) the same measures were -0.0158 and -0.0061.
As to `CN(CCO)CC[C@H](CSc1ccccc1)Nc1ccc(S(=O)(=O)NC(=O)c2ccc(N3CCC([C@@H](O)c4ccccc4-c4ccc(Cl)cc4)CC3)cc2)cc1S(=O)(=O)C(F)(F)F` [AZD4320] + Cc1cc2ncnn2cc1Nc1ncc2c(n1)n(C1CCOCC1)c(=O)n2C [AZD7648] (first compound max 1 µM, 7x7, partner max 10 µM), the values for the Bliss excess (in the assay on SK-N-FI (Neuroblastoma); in assay [1]) were -0.0203 and -0.0005, respectively.
In the same order, the values of `CC1(C)CCC(CN2CCN(c3ccc(C(=O)NS(=O)(=O)c4ccc(NCC5CCOCC5)c([N+](=O)[O-])c4)c(Oc4cnc5[nH]ccc5c4)c3)CC2)=C(c2ccc(Cl)cc2)C1` [Venetoclax] + Cn1cnc2c(F)c(Nc3ccc(Br)cc3Cl)c(C(=O)NOCCO)cc21 [Selumetinib] (first compound max 1 µM, 7x7, partner max 3 µM) are 0.0374 and 0.0137.
For `Cc1c2c(nn1C)CSCc1cc(n(C)n1)CSc1cc(c3ccccc3c1)OCCCc1c(C(=O)O)n(C)c3c-2c(Cl)ccc13` [AZD5991] + CCN(CCO)CCCOc1ccc2c(Nc3cc(CC(=O)Nc4cccc(F)c4)[nH]n3)ncnc2c1 [AZD2811] (first compound max 1 µM, 7x7, partner max 1 µM) the same measures were 0.0054 and 0.0482.
On to `CC1(C)CCC(CN2CCN(c3ccc(C(=O)NS(=O)(=O)c4ccc(NCC5CCOCC5)c([N+](=O)[O-])c4)c(Oc4cnc5[nH]ccc5c4)c3)CC2)=C(c2ccc(Cl)cc2)C1` [Venetoclax] + C1CN(CCC1(C(=O)N[C@@H](CCO)C2=CC=C(C=C2)Cl)N)C3=NC=NC4=C3C=CN4 [Capivasertib] (first compound max 1 µM, 7x7, partner max 3 µM), for which the Bliss excess in the assay with SK-N-FI (Neuroblastoma) was 0.0002; in assay [1], -0.071.
For `Cc1c2c(nn1C)CSCc1cc(n(C)n1)CSc1cc(c3ccccc3c1)OCCCc1c(C(=O)O)n(C)c3c-2c(Cl)ccc13` [AZD5991] + CN(C)CCCOc1ccc(-c2ccc3ncc4c(c3c2)n(C2CCOCC2)c(=O)n4C)cn1 [AZD0156] (first compound max 1 µM, 7x7, partner max 1 µM) the same measures were -0.0036 and 0.0057.
In the same order, the values of `CC1(C)CCC(CN2CCN(c3ccc(C(=O)NS(=O)(=O)c4ccc(NCC5CCOCC5)c([N+](=O)[O-])c4)c(Oc4cnc5[nH]ccc5c4)c3)CC2)=C(c2ccc(Cl)cc2)C1` [Venetoclax] + C[C@@H]1COCCN1C2=NC(=NC(=C2)C3(CC3)[S@](=N)(=O)C)C4=C5C=CNC5=NC=C4 [AZD6738] (first compound max 1 µM, 7x7, partner max 10 µM) are 0.0009 and -0.0402.
